Source: ChEMBL document CHEMBL4396865, “Current advances of triazole alcohols derived from fluconazole: Design, in vitro and in silico studies” (2019)
Values after ≈ are worked out from the molar mass of the structure shown.

Legend:
Assay type in all cases: functional
Candida albicans = assay: Antifungal activity against Candida albicans after 24 hrs by NCCLS protocol based method
Candida tropicalis = assay: Antifungal activity against Candida tropicalis after 24 hrs by NCCLS protocol based method
Trichophyton rubrum = assay: Antifungal activity against Trichophyton rubrum after 7 days by NCCLS protocol based method; conditions: 168 h
Cryptococcus neoformans = assay: Antifungal activity against Cryptococcus neoformans after 72 hrs by NCCLS protocol based method
Nannizzia gypsea = assay: Antifungal activity against Microsporum gypseum after 7 days by NCCLS protocol based method; conditions: 168 h
Candida parapsilosis = assay: Antifungal activity against Candida parapsilosis after 24 hrs by NCCLS protocol based method; conditions: Lodderomyces parapsilosis
Fonsecaea compacta = assay: Antifungal activity against Fonsecaea compacta after 24 hrs by NCCLS protocol based method

Row | MIC (Candida albicans) | MIC (Candida tropicalis) | MIC (Trichophyton rubrum) | MIC (Cryptococcus neoformans) | MIC (Nannizzia gypsea) | MIC80 (Candida parapsilosis) | MIC80 (Candida albicans) | MIC80 (Candida tropicalis) | MIC80 (Fonsecaea compacta) | MIC80 (Trichophyton rubrum) | MIC80 (Cryptococcus neoformans) | SMILES
1 | 1 ng/mL (≈ 2.32 nM) | 1 ng/mL (≈ 2.32 nM) | 1 ng/mL (≈ 2.32 nM) | 1 ng/mL (≈ 2.32 nM) | 1 ng/mL (≈ 2.32 nM) | – | – | – | – | – | – | Cc1ccc(OCCCCN(C)CC(O)(Cn2cncn2)c2ccc(F)cc2F)cc1 (configuration not stated)
2 | 1 ng/mL (≈ 2.22 nM) | 1 ng/mL (≈ 2.22 nM) | 1 ng/mL (≈ 2.22 nM) | 1 ng/mL (≈ 2.22 nM) | 1 ng/mL (≈ 2.22 nM) | – | – | – | – | – | – | CN(CCCCOc1ccc(Cl)cc1)CC(O)(Cn1cncn1)c1ccc(F)cc1F (configuration not stated)
3 | 1 ng/mL (≈ 2.32 nM) | 1 ng/mL (≈ 2.32 nM) | 1 ng/mL (≈ 2.32 nM) | 1 ng/mL (≈ 2.32 nM) | 1 ng/mL (≈ 2.32 nM) | – | – | – | – | – | – | Cc1cccc(OCCCCN(C)CC(O)(Cn2cncn2)c2ccc(F)cc2F)c1 (configuration not stated)
4 | 1 to 16 ng/mL (≈ 2.17 to 34.7 nM) | 1 to 16 ng/mL (≈ 2.17 to 34.7 nM) | 1 to 16 ng/mL (≈ 2.17 to 34.7 nM) | 1 to 16 ng/mL (≈ 2.17 to 34.7 nM) | 1 to 16 ng/mL (≈ 2.17 to 34.7 nM) | – | – | – | – | – | – | CN(CCCCOc1cccc([N+](=O)[O-])c1)CC(O)(Cn1cncn1)c1ccc(F)cc1F (configuration not stated)
5 | 1 to 16 ng/mL (≈ 2.17 to 34.7 nM) | 1 to 16 ng/mL (≈ 2.17 to 34.7 nM) | 1 to 16 ng/mL (≈ 2.17 to 34.7 nM) | 1 to 16 ng/mL (≈ 2.17 to 34.7 nM) | 1 to 16 ng/mL (≈ 2.17 to 34.7 nM) | – | – | – | – | – | – | CN(CCCCOc1ccccc1[N+](=O)[O-])CC(O)(Cn1cncn1)c1ccc(F)cc1F (configuration not stated)
6 | 1 ng/mL (≈ 2.17 nM) | 1 ng/mL (≈ 2.17 nM) | 1 ng/mL (≈ 2.17 nM) | 1 ng/mL (≈ 2.17 nM) | 1 ng/mL (≈ 2.17 nM) | – | – | – | – | – | – | CN(CCCCOc1ccc([N+](=O)[O-])cc1)CC(O)(Cn1cncn1)c1ccc(F)cc1F (configuration not stated)
7 | – | – | – | – | – | 3.9 to 62.5 ng/mL (≈ 8 to 128 nM) | 3.9 to 62.5 ng/mL (≈ 8 to 128 nM) | 3.9 to 62.5 ng/mL (≈ 8 to 128 nM) | 3.9 to 62.5 ng/mL (≈ 8 to 128 nM) | 3.9 to 62.5 ng/mL (≈ 8 to 128 nM) | 3.9 to 62.5 ng/mL (≈ 8 to 128 nM) | O=C(OC1CCN(CC(O)(Cn2cncn2)c2ccc(F)cc2F)CC1)c1cccc([N+](=O)[O-])c1 (configuration not stated)
8 | 1 to 16 ng/mL (≈ 2.4 to 38.4 nM) | 1 to 16 ng/mL (≈ 2.4 to 38.4 nM) | 1 to 16 ng/mL (≈ 2.4 to 38.4 nM) | 1 to 16 ng/mL (≈ 2.4 to 38.4 nM) | 1 to 16 ng/mL (≈ 2.4 to 38.4 nM) | – | – | – | – | – | – | Cc1ccccc1OCCCN(C)CC(O)(Cn1cncn1)c1ccc(F)cc1F (configuration not stated)
9 | – | – | – | – | – | 3.9 to 62.5 ng/mL (≈ 7.41 to 119 nM) | 3.9 to 62.5 ng/mL (≈ 7.41 to 119 nM) | 3.9 to 62.5 ng/mL (≈ 7.41 to 119 nM) | 3.9 to 62.5 ng/mL (≈ 7.41 to 119 nM) | 3.9 to 62.5 ng/mL (≈ 7.41 to 119 nM) | 3.9 to 62.5 ng/mL (≈ 7.41 to 119 nM) | CCCCCCc1ccc(C(=O)OC2CCN(CC(O)(Cn3cncn3)c3ccc(F)cc3F)CC2)cc1 (configuration not stated)
10 | – | – | – | – | – | 3.9 to 62.5 ng/mL (≈ 8.54 to 137 nM) | 3.9 to 62.5 ng/mL (≈ 8.54 to 137 nM) | 3.9 to 62.5 ng/mL (≈ 8.54 to 137 nM) | 3.9 to 62.5 ng/mL (≈ 8.54 to 137 nM) | 3.9 to 62.5 ng/mL (≈ 8.54 to 137 nM) | 3.9 to 62.5 ng/mL (≈ 8.54 to 137 nM) | Cc1ccc(C(=O)OC2CCN(CC(O)(Cn3cncn3)c3ccc(F)cc3F)CC2)cc1 (configuration not stated)
11 | – | – | – | – | – | 3.9 to 62.5 ng/mL (≈ 8.29 to 133 nM) | 3.9 to 62.5 ng/mL (≈ 8.29 to 133 nM) | 3.9 to 62.5 ng/mL (≈ 8.29 to 133 nM) | 3.9 to 62.5 ng/mL (≈ 8.29 to 133 nM) | 3.9 to 62.5 ng/mL (≈ 8.29 to 133 nM) | 3.9 to 62.5 ng/mL (≈ 8.29 to 133 nM) | CCc1ccc(C(=O)OC2CCN(CC(O)(Cn3cncn3)c3ccc(F)cc3F)CC2)cc1 (configuration not stated)
12 | – | – | – | – | – | 3.9 to 62.5 ng/mL (≈ 8.29 to 133 nM) | 3.9 to 62.5 ng/mL (≈ 8.29 to 133 nM) | 3.9 to 62.5 ng/mL (≈ 8.29 to 133 nM) | 3.9 to 62.5 ng/mL (≈ 8.29 to 133 nM) | 3.9 to 62.5 ng/mL (≈ 8.29 to 133 nM) | 3.9 to 62.5 ng/mL (≈ 8.29 to 133 nM) | Cc1ccc(C(=O)OC2CCN(CC(O)(Cn3cncn3)c3ccc(F)cc3F)CC2)cc1C (configuration not stated)
13 | – | – | – | – | – | 3.9 to 62.5 ng/mL (≈ 7.82 to 125 nM) | 3.9 to 62.5 ng/mL (≈ 7.82 to 125 nM) | 3.9 to 62.5 ng/mL (≈ 7.82 to 125 nM) | 3.9 to 62.5 ng/mL (≈ 7.82 to 125 nM) | 3.9 to 62.5 ng/mL (≈ 7.82 to 125 nM) | 3.9 to 62.5 ng/mL (≈ 7.82 to 125 nM) | CC(C)(C)c1ccc(C(=O)OC2CCN(CC(O)(Cn3cncn3)c3ccc(F)cc3F)CC2)cc1 (configuration not stated)
14 | 1 to 16 ng/mL (≈ 2.18 to 34.9 nM) | 1 to 16 ng/mL (≈ 2.18 to 34.9 nM) | 1 to 16 ng/mL (≈ 2.18 to 34.9 nM) | 1 to 16 ng/mL (≈ 2.18 to 34.9 nM) | 1 to 16 ng/mL (≈ 2.18 to 34.9 nM) | – | – | – | – | – | – | CN(CCCOc1ccc(C(C)(C)C)cc1)CC(O)(Cn1cncn1)c1ccc(F)cc1F (configuration not stated)
15 | – | – | – | – | – | 3.9 to 62.5 ng/mL (≈ 8.47 to 136 nM) | 3.9 to 62.5 ng/mL (≈ 8.47 to 136 nM) | 3.9 to 62.5 ng/mL (≈ 8.47 to 136 nM) | 3.9 to 62.5 ng/mL (≈ 8.47 to 136 nM) | 3.9 to 62.5 ng/mL (≈ 8.47 to 136 nM) | 3.9 to 62.5 ng/mL (≈ 8.47 to 136 nM) | O=C(OC1CCN(CC(O)(Cn2cncn2)c2ccc(F)cc2F)CC1)c1ccc(F)cc1 (configuration not stated)
16 | – | – | – | – | – | 3.9 to 62.5 ng/mL (≈ 8.47 to 136 nM) | 3.9 to 62.5 ng/mL (≈ 8.47 to 136 nM) | 3.9 to 62.5 ng/mL (≈ 8.47 to 136 nM) | 3.9 to 62.5 ng/mL (≈ 8.47 to 136 nM) | 3.9 to 62.5 ng/mL (≈ 8.47 to 136 nM) | 3.9 to 62.5 ng/mL (≈ 8.47 to 136 nM) | O=C(OC1CCN(CC(O)(Cn2cncn2)c2ccc(F)cc2F)CC1)c1cccc(F)c1 (configuration not stated)
17 | 1 ng/mL (≈ 2.23 nM) | 1 ng/mL (≈ 2.23 nM) | 1 ng/mL (≈ 2.23 nM) | 1 ng/mL (≈ 2.23 nM) | 1 ng/mL (≈ 2.23 nM) | – | – | – | – | – | – | CN(CCCOc1ccc([N+](=O)[O-])cc1)CC(O)(Cn1cncn1)c1ccc(F)cc1F (configuration not stated)
18 | – | – | – | – | – | 3.9 to 62.5 ng/mL (≈ 8 to 128 nM) | 3.9 to 62.5 ng/mL (≈ 8 to 128 nM) | 3.9 to 62.5 ng/mL (≈ 8 to 128 nM) | 3.9 to 62.5 ng/mL (≈ 8 to 128 nM) | 3.9 to 62.5 ng/mL (≈ 8 to 128 nM) | 3.9 to 62.5 ng/mL (≈ 8 to 128 nM) | O=C(OC1CCN(CC(O)(Cn2cncn2)c2ccc(F)cc2F)CC1)c1ccc([N+](=O)[O-])cc1 (configuration not stated)
19 | 1 to 16 ng/mL (≈ 2.31 to 37 nM) | 1 to 16 ng/mL (≈ 2.31 to 37 nM) | 1 to 16 ng/mL (≈ 2.31 to 37 nM) | 1 to 16 ng/mL (≈ 2.31 to 37 nM) | 1 to 16 ng/mL (≈ 2.31 to 37 nM) | – | – | – | – | – | – | COc1ccc(OCCCN(C)CC(O)(Cn2cncn2)c2ccc(F)cc2F)cc1 (configuration not stated)
20 | – | – | – | – | – | 3.9 to 62.5 ng/mL (≈ 8.25 to 132 nM) | 3.9 to 62.5 ng/mL (≈ 8.25 to 132 nM) | 3.9 to 62.5 ng/mL (≈ 8.25 to 132 nM) | 3.9 to 62.5 ng/mL (≈ 8.25 to 132 nM) | 3.9 to 62.5 ng/mL (≈ 8.25 to 132 nM) | 3.9 to 62.5 ng/mL (≈ 8.25 to 132 nM) | COc1ccc(C(=O)OC2CCN(CC(O)(Cn3cncn3)c3ccc(F)cc3F)CC2)cc1 (configuration not stated)
21 | – | – | – | – | – | 3.9 to 62.5 ng/mL (≈ 8.18 to 131 nM) | 3.9 to 62.5 ng/mL (≈ 8.18 to 131 nM) | 3.9 to 62.5 ng/mL (≈ 8.18 to 131 nM) | 3.9 to 62.5 ng/mL (≈ 8.18 to 131 nM) | 3.9 to 62.5 ng/mL (≈ 8.18 to 131 nM) | 3.9 to 62.5 ng/mL (≈ 8.18 to 131 nM) | O=C(OC1CCN(CC(O)(Cn2cncn2)c2ccc(F)cc2F)CC1)c1ccccc1Cl (configuration not stated)
22 | – | – | – | – | – | 3.9 to 62.5 ng/mL (≈ 8 to 128 nM) | 3.9 to 62.5 ng/mL (≈ 8 to 128 nM) | 3.9 to 62.5 ng/mL (≈ 8 to 128 nM) | 3.9 to 62.5 ng/mL (≈ 8 to 128 nM) | 3.9 to 62.5 ng/mL (≈ 8 to 128 nM) | 3.9 to 62.5 ng/mL (≈ 8 to 128 nM) | O=C(OC1CCN(CC(O)(Cn2cncn2)c2ccc(F)cc2F)CC1)c1ccccc1[N+](=O)[O-] (configuration not stated)
